Data published in patent publication US6864086B2, “Nitric oxide-scavenging system for culturing oocytes, embryos, or other cells” (Board of Supervisors of Louisiana State University and …, priority 1998, dated 2005).
Marks after values point to notes of the source that are not given here.

Test system: inseminated bovine oocytes co-cultured with cumulus-granulosa cells
Assay: Example 5: Hb (1 μg/ml) added to mBECM-C at different times of co-culture with CGs
Type: cell-based
Conditions: for No of embryos developed to the 2-cell / % of embryos developed to the 2-cell: examined 48 h; for No of embryos developed to the 8-cell / % of embryos developed to the 8-cell: examined 60 h; for No of embryos developed to the 16-cell / % of embryos developed to the 16-cell: examined 120 h; for No of embryos developed to the Morula / % of embryos developed to the Morula: examined 144 h; for No of embryos developed to the Blastocyst / % of embryos developed to the Blastocyst: examined 192 h
Description: mBECM containing 10 μM β-mercaptoethanol was used to culture embryos, as described in J. Lim et al., “Roles of growth factors in the development of bovine embryos fertilized in vitro and cultured singly in a defined medium,” Reprod. Fertil. Dev., 8, 1199-1205 (1996). To culture individual 8-cell embryos we used mBECM supplemented with 1 ng/ml platelet derived growth factor type AB (PDGF; Upstate Biotechnology Inc., Lake Placid, N.Y.), 1 ng/ml transforming growth factor-β (TGF; R & D System, Minneapolis, Minn.), 50 ng/ml arachidonic acid (AA; Cayman Chemical Co., Ann Arbor, Mich.), 100 μM glutathione (GSH; Sigma Co.) and 1 mg/ml polyvinyl alcohol (PVA) (mBECM-S). mBECM to which 10% (v/v) FBS was added (mBECM-C) was used for co-culturing inseminated zygotes with CGs and for producing 8-cell embryos. Osmolarity of the medium was maintained within the range of 265-290 mOsm.
The bovine cumulus-oocyte complexes (COCs) used were collected in Madison, Wis. (BOMED, Inc.), and were shipped in 2-ml of maturation medium in a battery powered incubator via overnight express mail service. Oocytes matured during transit and arrived within 24 h after exposure to maturation medium, pre-equilibrated at 39° C. in 5% CO2 in air. At 22-24 h after exposure to the medium, the COCs were inseminated in vitro as described in J. Lim et al., “Intracytoplasmic glutathione concentration and the role of β-mercaptoethanol in preimplantation development of bovine embryos,” Theriogenology, 46, 429-439 (1996). At 18 h post-insemination, COCs were cultured in groups (30-35 embryos) in a 4-well multidish (Nunc, Roskilde, Denmark) containing 0.8-ml of mBECM-C. Embryos were dislodged from CGs at 36-48 h post-insemination.
In Example 1, embryos (83-85 per group) collected 18 h post-insemination were cultured in mBECM-C, to which 0, 0.008, or 0.04 mM SNP was added at 18 or 60 h post-insemination. In Example 2, 8-cell embryos (80 per group) were produced in a co-culture system containing CGs and mBECM-C, and then beginning at 60 h post-insemination were cultured singly in a defined culture medium (mBECM-S), to which 0, 0.0016, 0.008, or 0.04 mM of SNP (S-0501, Sigma Co.) was added. In Example 3 embryos, either uncleaved (n=99) or developed to the 2-cell stage (90), were collected 48 h post-insemination; and cleaved embryos, either developed to the morula stage (69) or degenerate (63) were collected 144 h post-insemination. NO metabolites were then measured in the embryos. In Example 4, three groups of 95 zygotes each were co-cultured with CGs in mBECM-C, to which 0, 1, or 10 μg/ml Hb (bovine, mainly methemoglobin, H-2500, Sigma Co.) was added. […] In Example 6, inseminated oocytes (93 per group) were cultured in the presence or absence of CGs in mBECM-C to which either 0 or 1 μg/ml Hb was added. In Example 7, 8-cell embryos (100 per group), obtained after culture in mBECM-C supplemented with Hb (1 μg/ml), were cultured singly in mBECM-S, with or without Hb.
Oocytes or 8-cell embryos were randomly and equally allocated to each treatment group. In Examples 1, 2, and 4-7, oocytes or embryos that had developed to the 2-cell, 8-cell, >8-cell, 16-cell morula, and blastocyst stages were individually scored ‘1’ (developed) at 48, 60, 96, 120, 144 and 192 h post-insemination, respectively. […] Sums of the scores in each stage of development were evaluated by analysis of variance (ANOVA) using the general linear model (PROC-GLM) in the SAS program software. In Example 3, concentrations of NO metabolites in embryos were subjected to ANOVA. […] Differences were regarded as statistically significant where P values were less than 0.05.

[1] = Hb 1 μg/ml added 18 h post-insemination (1-cell)
[2] = Hb 1 μg/ml added 18 h post-insemination (1-cell), 104 oocytes
[3] = Hb 1 μg/ml added 60 h post-insemination (8-cell)
[4] = Hb 1 μg/ml added 60 h post-insemination (8-cell), 104 oocytes
[5] = Hb 1 μg/ml added 144 h post-insemination (Morula)
[6] = Hb 1 μg/ml added 144 h post-insemination (Morula), 103 oocytes

## hemoglobin [Hb]
[1]
  Ratio of blastocysts to morulae: 0.74
  % of embryos developed to the 2-cell: 73%
  % of embryos developed to the 8-cell: 50%
  % of embryos developed to the 16-cell: 43%
  % of embryos developed to the Morula: 33%
  % of embryos developed to the Blastocyst: 24%
[2]
  No of embryos developed to the 2-cell: 76
  No of embryos developed to the 8-cell: 52
  No of embryos developed to the 16-cell: 45
  No of embryos developed to the Morula: 34
  No of embryos developed to the Blastocyst: 25
[3]
  Ratio of blastocysts to morulae: 1.00
  % of embryos developed to the 2-cell: 64%
  % of embryos developed to the 8-cell: 38%
  % of embryos developed to the 16-cell: 34%
  % of embryos developed to the Morula: 29%
  % of embryos developed to the Blastocyst: 29%
[4]
  No of embryos developed to the 2-cell: 67
  No of embryos developed to the 8-cell: 40
  No of embryos developed to the 16-cell: 35
  No of embryos developed to the Morula: 30
  No of embryos developed to the Blastocyst: 30
[5]
  Ratio of blastocysts to morulae: 0.96
  % of embryos developed to the 2-cell: 62%
  % of embryos developed to the 8-cell: 33%
  % of embryos developed to the 16-cell: 27%
  % of embryos developed to the Morula: 22%
  % of embryos developed to the Blastocyst: 22 (22)^c,d %
[6]
  No of embryos developed to the 2-cell: 64
  No of embryos developed to the 8-cell: 34
  No of embryos developed to the 16-cell: 28
  No of embryos developed to the Morula: 23
  No of embryos developed to the Blastocyst: 22 (22)^c,d
Hb 1 μg/ml added at 18 or 60 h post-insemination, controls 13%
  proportion of blastocysts: 24-29%
